Assay [1] concerns the target T1, PI3K-α (PIK3CA) H1047R mutant, p110α/p85α complex (Homo sapiens, UniProt P42336, H1047R).
T1 construct: Recombinant, catalytically active human full length PIK3KA Wild-type and H1047R mutant; 6×His (N); purchased EMD Millipore Sigma 14-792M
Kind of assay: PI3K-alpha kinase (PIK3CA) biochemical activity, ADP-Glo, H1047R mutant. The following applies: Soy PI lipid substrate. The gist of the method: (§1)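 ADP formation measured by ADP-Glo luminescence after reaction at 27 °C to about 10% ATP turnover, using 20 uM ATP, 50 uM PIP2diC8 or soy PI lipid, HEPES pH 7.4 with MgCl2. Enzyme (1-5 nM WT or H1047R p110α/p85α) and compound preincubated 1 h first; 10-point 1:3 curves fitted four-parameter for IC50.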

Assay [2] concerns the target T2, PI3K-α (PIK3CA) wild-type (WT), p110α/p85α complex (Homo sapiens, UniProt P42336).
T2 construct: Recombinant, catalytically active human full length PIK3KA Wild-type and H1047R mutant; 6×His (N); purchased EMD Millipore Sigma 14-602M
Put plainly: PI3K-alpha kinase (PIK3CA) biochemical activity, ADP-Glo, wild-type. As to conditions: Soy PI lipid substrate. The gist of the method: as §1

Assay [3] concerns the target PI3K-α (PIK3CA) in MDA-MB-453 cells (Homo sapiens, UniProt P42336). Put plainly: PI3K-alpha kinase (PIK3CA) in vitro cell based assay, MDA-MB-453 cells, SureFire Ultra AlphaLisa. The following applies: read-out: PI3K-α (PIK3CA) in vitro cell based assay IC50. The method in brief: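 Cells treated 3 h in serum-free MEM with 1 μg/mL insulin, 10-point 1:3 series in 0.3% DMSO, then lysed for SureFire Ultra AlphaLisa read-out. Inhibition normalized to DMSO (max) and 1 μM GDC-0032 (min); duplicate averages fitted by 4-parameter logistic for relative IC50.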

T1 sequence (P42336 whole entry H1047R): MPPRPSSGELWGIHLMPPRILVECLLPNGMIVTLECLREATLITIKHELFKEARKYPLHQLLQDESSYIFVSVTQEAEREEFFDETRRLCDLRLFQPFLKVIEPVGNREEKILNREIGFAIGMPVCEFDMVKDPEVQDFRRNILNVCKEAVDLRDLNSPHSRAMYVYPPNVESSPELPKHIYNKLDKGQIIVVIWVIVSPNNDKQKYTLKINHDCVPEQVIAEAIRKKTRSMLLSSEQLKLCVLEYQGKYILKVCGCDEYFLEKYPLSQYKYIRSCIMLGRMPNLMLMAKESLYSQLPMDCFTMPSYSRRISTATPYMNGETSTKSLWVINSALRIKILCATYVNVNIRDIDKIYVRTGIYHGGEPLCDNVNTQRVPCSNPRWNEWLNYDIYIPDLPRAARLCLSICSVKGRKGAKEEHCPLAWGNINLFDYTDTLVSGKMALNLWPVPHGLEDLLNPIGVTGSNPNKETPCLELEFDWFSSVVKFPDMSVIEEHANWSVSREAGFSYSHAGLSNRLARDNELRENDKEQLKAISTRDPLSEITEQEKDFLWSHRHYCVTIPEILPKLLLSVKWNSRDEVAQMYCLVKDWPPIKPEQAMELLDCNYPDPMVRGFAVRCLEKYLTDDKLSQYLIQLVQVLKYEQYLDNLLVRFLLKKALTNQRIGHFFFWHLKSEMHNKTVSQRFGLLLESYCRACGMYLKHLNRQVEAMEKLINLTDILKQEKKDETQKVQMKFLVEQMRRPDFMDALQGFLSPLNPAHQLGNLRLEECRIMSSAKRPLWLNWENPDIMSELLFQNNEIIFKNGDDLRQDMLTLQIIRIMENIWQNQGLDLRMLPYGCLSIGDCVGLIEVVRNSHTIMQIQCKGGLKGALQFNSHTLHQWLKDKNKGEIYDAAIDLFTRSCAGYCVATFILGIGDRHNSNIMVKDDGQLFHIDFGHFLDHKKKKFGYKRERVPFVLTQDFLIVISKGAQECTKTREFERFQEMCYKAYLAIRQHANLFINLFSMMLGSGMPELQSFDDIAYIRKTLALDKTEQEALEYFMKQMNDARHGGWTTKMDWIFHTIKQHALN
T1 sequence (P27986 whole entry partner): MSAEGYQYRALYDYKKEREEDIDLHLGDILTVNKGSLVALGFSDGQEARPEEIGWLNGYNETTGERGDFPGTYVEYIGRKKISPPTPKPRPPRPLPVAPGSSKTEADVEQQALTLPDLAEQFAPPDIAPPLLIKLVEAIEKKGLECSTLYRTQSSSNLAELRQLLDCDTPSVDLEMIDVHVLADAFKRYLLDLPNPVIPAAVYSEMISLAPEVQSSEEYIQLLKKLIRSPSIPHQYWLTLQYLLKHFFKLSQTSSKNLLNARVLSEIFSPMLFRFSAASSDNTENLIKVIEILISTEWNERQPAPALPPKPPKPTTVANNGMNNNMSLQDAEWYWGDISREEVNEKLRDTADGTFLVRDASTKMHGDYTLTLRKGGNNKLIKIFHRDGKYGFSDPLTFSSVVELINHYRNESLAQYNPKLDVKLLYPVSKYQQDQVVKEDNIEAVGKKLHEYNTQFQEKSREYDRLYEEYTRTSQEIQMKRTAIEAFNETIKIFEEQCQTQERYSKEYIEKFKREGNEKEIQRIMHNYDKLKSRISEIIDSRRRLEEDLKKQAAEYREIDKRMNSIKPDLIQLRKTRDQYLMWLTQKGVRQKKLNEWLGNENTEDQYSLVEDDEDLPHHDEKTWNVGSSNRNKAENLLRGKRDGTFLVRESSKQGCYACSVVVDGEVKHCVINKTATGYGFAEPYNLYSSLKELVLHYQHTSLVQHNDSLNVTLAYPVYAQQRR
PI3K-α (PIK3CA) in MDA-MB-453 cells, sequence (P27986 2-724): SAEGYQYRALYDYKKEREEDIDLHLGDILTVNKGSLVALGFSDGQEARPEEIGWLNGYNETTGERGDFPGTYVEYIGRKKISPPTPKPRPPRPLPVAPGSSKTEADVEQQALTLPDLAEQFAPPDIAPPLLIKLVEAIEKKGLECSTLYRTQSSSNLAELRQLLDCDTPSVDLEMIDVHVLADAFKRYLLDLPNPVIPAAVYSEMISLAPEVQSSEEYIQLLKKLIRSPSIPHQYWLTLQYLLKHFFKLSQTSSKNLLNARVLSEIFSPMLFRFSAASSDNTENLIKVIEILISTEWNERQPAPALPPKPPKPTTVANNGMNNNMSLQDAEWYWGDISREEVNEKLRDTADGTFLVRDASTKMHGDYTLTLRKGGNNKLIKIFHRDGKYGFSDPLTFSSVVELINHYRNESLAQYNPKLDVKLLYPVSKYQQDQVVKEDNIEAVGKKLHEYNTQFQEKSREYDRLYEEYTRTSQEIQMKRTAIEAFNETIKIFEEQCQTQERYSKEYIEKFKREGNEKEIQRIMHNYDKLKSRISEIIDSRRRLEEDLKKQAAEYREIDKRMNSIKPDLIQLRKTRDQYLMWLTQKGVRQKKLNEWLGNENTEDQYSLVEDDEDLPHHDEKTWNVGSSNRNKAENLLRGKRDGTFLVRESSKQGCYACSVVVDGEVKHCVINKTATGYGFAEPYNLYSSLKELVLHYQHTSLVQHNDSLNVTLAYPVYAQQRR
PI3K-α (PIK3CA) in MDA-MB-453 cells, sequence (P42336 whole entry): as the sequence (P42336 whole entry H1047R) above, with R1047H counted along it

Take `Cc1cc([C@@H](C)Nc2ccccc2C(=O)O)c2oc(-c3ccc4nn(Cc5ccccc5)cc4c3)c(C)c(=O)c2c1` [Example 210, 2-[[(1R)-1-[2-(2-Benzylindazol-5-yl)-3,6-dimethyl-4-oxo-chromen-8-yl]ethyl]amino]benzoic acid]: the IC50 in assay [1] was < 500 nM; in assay [2] it was 500 to 1000 nM; in assay [3] it was < 50 nM.
For `Cc1cc([C@@H](C)Nc2ccc(C(F)(F)F)cc2C(=O)O)c2oc(-c3ccc4nc(C)sc4n3)c(C)c(=O)c2c1` [Example 234, 2-[[(1R)-1-[3,6-Dimethyl-2-(2-methylthiazolo[5,4-b]pyridin-5-yl)-4-oxo-chromen-8-yl]ethyl]amino]-5-(trifluoromethyl)benzoic acid], the figures for the IC50 in assay [1], in assay [2] and in assay [3] were 1000 to 5000 nM, 1000 to 5000 nM and 100 to 500 nM, respectively.
For `Cc1cc(C(C)Nc2ccccc2C(=O)O)c2oc(-c3ccc4nn(C)cc4n3)cc(=O)c2c1` (single isomer, unassigned) [Example 54, 2-[1-[6-Methyl-2-(2-methylpyrazolo[4,3-b]pyridin-5-yl)-4-oxo-chromen-8-yl]ethylamino]benzoic acid], the IC50 was < 500 nM in assay [1], 1000 to 5000 nM in assay [2] and < 50 nM in assay [3].
In the case of `Cc1cc([C@@H](C)Nc2cccc(F)c2C(=O)O)c2oc(-c3ccc4nc(C)sc4n3)cc(=O)c2c1` [Example 257, 2-Fluoro-6-[[(1R)-1-[6-methyl-2-(2-methylthiazolo[5,4-b]pyridin-5-yl)-4-oxo-chromen-8-yl]ethyl]amino]benzoic acid], the IC50 in assay [1] was < 500 nM; in assay [2], 1000 to 5000 nM; in assay [3], < 50 nM.
As for `Cc1cc(C(C)Nc2ccccc2C(=O)O)c2oc(-c3ccc4c(c3)NC(=O)C4)cc(=O)c2c1` (single isomer, unassigned) [Example 115, 2-[1-[6-Methyl-4-oxo-2-(2-oxoindolin-6-yl)chromen-8-yl]ethylamino]benzoic acid], the results for the IC50 in assay [1], in assay [2] and in assay [3] were < 500 nM, 1000 to 5000 nM and 100 to 500 nM, respectively.
For `Cc1cc([C@@H](C)Nc2ccc(C(F)(F)F)cc2C(=O)O)c2oc(-c3ccc4nn(C)cc4c3)c(C)c(=O)c2c1` [Example 235, 2-[[(1R)-1-[3,6-Dimethyl-2-(2-methylindazol-5-yl)-4-oxo-chromen-8-yl]ethyl]amino]-5-(trifluoromethyl)benzoic acid], the IC50 was < 500 nM in assay [1], 1000 to 5000 nM in assay [2] and 50 to 100 nM in assay [3].
The matching figures for `Cc1cc(C(C)Nc2ccccc2C(=O)O)c2oc(-c3ccc4cn[nH]c4c3)cc(=O)c2c1` (single isomer, unassigned) [Example 63, 2-[1-[2-(1H-Indazol-6-yl)-6-methyl-4-oxo-chromen-8-yl]ethylamino]benzoic acid]: < 500 nM, 500 to 1000 nM and < 50 nM.
As to `Cc1cc([C@@H](C)Nc2cccc(F)c2C(=O)O)c2oc(-c3nn(C)c4ccccc34)c(C)c(=O)c2c1` [Example 230, 2-[[(1R)-1-[3,6-Dimethyl-2-(1-methylindazol-3-yl)-4-oxo-chromen-8-yl]ethyl]amino]-6-fluoro-benzoic acid], the IC50 was < 500 nM in assay [1], < 500 nM in assay [2] and 50 to 100 nM in assay [3].
In the case of `Cc1cc(C(C)Nc2ccc(Cl)nc2C(=O)O)c2oc(-c3nn(C)c4ccccc34)c(C)c(=O)c2c1` (single isomer, unassigned) [Example 170, 6-Chloro-3-[1-[3,6-dimethyl-2-(1-methylindazol-3-yl)-4-oxo-chromen-8-yl]ethylamino]pyridine-2-carboxylic acid], the IC50 in assay [1] is < 500 nM; in assay [2] it was < 500 nM; in assay [3] it was < 50 nM.
On to `Cc1cc(C(C)Nc2ccccc2C(=O)O)c2oc(-c3ccc4c(c3)OC(F)(F)O4)cc(=O)c2c1` (single isomer, unassigned) [Example 64, 2-[1-[2-(2,2-Difluoro-1,3-benzodioxol-5-yl)-6-methyl-4-oxo-chromen-8-yl]ethylamino]benzoic acid], for which the IC50 in assay [1] was < 500 nM; in assay [2] it was 1000 to 5000 nM; in assay [3] it was < 50 nM.
For `Cc1cc([C@@H](C)Nc2cccc(F)c2C(=O)O)c2oc(-c3cc4cnccc4o3)c(C)c(=O)c2c1` [Example 264, 2-Fluoro-6-[[(1R)-1-(2-furo[3,2-c]pyridin-2-yl-3,6-dimethyl-4-oxo-chromen-8-yl)ethyl]amino]benzoic acid; 2,2,2-trifluoroacetic acid], the IC50 in assay [1] was < 500 nM; in assay [2], < 500 nM; in assay [3], < 50 nM.
For `Cc1cc(C(C)Nc2ccccc2C(=O)O)c2oc(-c3cnc4ccccn34)cc(=O)c2c1` (single isomer, unassigned) [Example 145, 2-[1-(2-Imidazo[1,2-a]pyridin-3-yl-6-methyl-4-oxo-chromen-8-yl)ethylamino]benzoic acid], the IC50 is < 500 nM in assay [1], 1000 to 5000 nM in assay [2] and 100 to 500 nM in assay [3].
Consider `Cc1cc(C(C)Nc2ccc(Cl)nc2C(=O)O)c2oc(-c3ccc4cnn(C)c4c3)cc(=O)c2c1` (single isomer, unassigned) [Example 219, 6-Chloro-3-[1-[6-methyl-2-(1-methylindazol-6-yl)-4-oxo-chromen-8-yl]ethylamino]pyridine-2-carboxylic acid], for which the IC50 in assay [1] is 1000 to 5000 nM; in assay [2], 1000 to 5000 nM; in assay [3] it was > 500 nM.
Consider `CC(Nc1ccc(Cl)nc1C(=O)O)c1cc(C(F)(F)F)cc2c(=O)cc(-c3ccc4c(cnn4C)c3)oc12` (single isomer, unassigned) [Example 168, 6-Chloro-3-[1-[2-(1-methylindazol-5-yl)-4-oxo-6-(trifluoromethyl)chromen-8-yl]ethylamino]pyridine-2-carboxylic acid], for which the IC50 in assay [1] is < 500 nM; in assay [2], < 500 nM; in assay [3], 50 to 100 nM.
In the case of `Cc1cc([C@@H](C)Nc2cccnc2C(=O)O)c2oc(-c3ccc4nn(C)cc4c3)cc(=O)c2c1` [Example 226, 3-[[(1R)-1-[6-Methyl-2-(2-methylindazol-5-yl)-4-oxo-chromen-8-yl]ethyl]amino]pyridine-2-carboxylic acid], the 50% inhibitory concentration (IC50) in assay [1] was in the range of 500 to 1000 nM; in assay [2] it was 1000 to 5000 nM; in assay [3], 100 to 500 nM.
Consider `Cc1cc(C(C)Nc2ccccc2C(=O)O)c2oc(-c3ccc4ncccc4n3)cc(=O)c2c1` (single isomer, unassigned) [Example 252, 2-[1-[6-Methyl-2-(1,5-naphthyridin-2-yl)-4-oxo-chromen-8-yl]ethylamino]benzoic acid], for which the IC50 is 500 to 1000 nM in assay [1], 1000 to 5000 nM in assay [2] and < 50 nM in assay [3].
Take `Cc1cc(C(C)Nc2ccccc2C(=O)O)c2oc(-c3cnc4c(c3)OCCO4)cc(=O)c2c1` (single isomer, unassigned) [Example 163, 2-[1-[2-(2,3-Dihydro-[1,4]dioxino[2,3-b]pyridin-7-yl)-6-methyl-4-oxo-chromen-8-yl]ethylamino]benzoic acid]: the values for the IC50 in assay [1], in assay [2] and in assay [3] were < 500 nM, 5000 to 10000 nM and 50 to 100 nM, respectively.
The matching figures for `Cc1cc([C@@H](C)Nc2ccc(Cl)cc2C(=O)O)c2oc(-c3ccc4nn(C)cc4c3)c(C)c(=O)c2c1` [Example 258, 5-Chloro-2-[[(1R)-1-[3,6-dimethyl-2-(2-methylindazol-5-yl)-4-oxo-chromen-8-yl]ethyl]amino]benzoic acid]: < 500 nM, 500 to 1000 nM and < 50 nM.
In the case of `Cc1cc([C@@H](C)Nc2ccc(F)c(F)c2C(=O)O)c2oc(-c3ccc4nn(C)cc4c3)c(C)c(=O)c2c1` [Example 204, 6-[[(1R)-1-[3,6-Dimethyl-2-(2-methylindazol-5-yl)-4-oxo-chromen-8-yl]ethyl]amino]-2,3-difluoro-benzoic acid], the IC50 in assay [1] is < 500 nM; in assay [2], 500 to 1000 nM; in assay [3] it was 50 to 100 nM.
As to `Cc1cc([C@@H](C)Nc2ccc(Cl)nc2C(=O)O)c2oc(-c3ccc4nc(C)sc4n3)cc(=O)c2c1` [Example 251, 6-Chloro-3-[[(1R)-1-[6-methyl-2-(2-methylthiazolo[5,4-b]pyridin-5-yl)-4-oxo-chromen-8-yl]ethyl]amino]pyridine-2-carboxylic acid], the IC50 in assay [1] is < 500 nM; in assay [2], 1000 to 5000 nM; in assay [3] it was 50 to 100 nM.
Regarding `Cc1cc([C@@H](C)Nc2ccc(C(F)(F)F)nc2C(=O)O)c2oc(-c3ccc4nn(C)cc4c3)c(C)c(=O)c2c1` [Example 236, 3-[[(1R)-1-[3,6-Dimethyl-2-(2-methylindazol-5-yl)-4-oxo-chromen-8-yl]ethyl]amino]-6-(trifluoromethyl)pyridine-2-carboxylic acid], the IC50 was < 500 nM in assay [1], 500 to 1000 nM in assay [2] and < 50 nM in assay [3].
On to `Cc1cc(C(C)Nc2ccccc2C(=O)O)c2oc(-n3ncc4c(F)cccc43)cc(=O)c2c1` (single isomer, unassigned) [Example 86], for which the IC50 was < 500 nM in assay [1], 500 to 1000 nM in assay [2] and 50 to 100 nM in assay [3].

Values taken from patent US11878970B2, “Allosteric chromenone inhibitors of phosphoinositide 3-kinase (PI3K) for the treatment of disease” (Petra Pharma Corporation, priority 2021, dated 2024).
